In US8269026B2, “Lupane derivatives useful for treating HIV” (priority 2008, dated 2012):
pIC50: −log10 of the molar value. Structures can show the parent of a compound that is named as a salt.

These compounds were tested on HIV-1 (HIVIIIB) replication in MT2 cell line (assay: HIV-1 replication in MT2 cell line with and without 30% human serum (viral RT activity in supernatant)). Conditions: Human immunodeficiency virus 1, MT2 cells, with 30% human serum, average IC50 if tested more than once, read-out: MT2 (HIVIIIB) with HS 30% IC50 range.
Assay type: cell-based
Procedure, shortened: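 Read-out is supernatant reverse transcriptase activity on day 5 post-infection, giving IC50 and IC90. Compounds were titrated in complete medium ± 30% human serum, re-dosed after 3 days, on MT2 cells exposed for 3 h to HIVIIIB at MOI 0.5 then washed.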

| Compound | pIC50 |
| --- | --- |
| Cc1ccc(C(=O)N[C@@]23CC[C@]4(C)C(CCC5[C@@]6(C)CC[C@H](OC(=O)CC(C)(C)C(=O)O)C(C)(C)C6CC[C@]54C)C2=C(C(C)C)C(=O)C3)s1 (stereo partly drawn) [19-77, 3β-O-(3′,3′-Dimethylsuccinyl)-17β-(5-methyl-thiophene-2-amido)-21-oxolup-18-ene] | > 6.70 |
| CC(C)C1=C2C3CCC4[C@@]5(C)CC[C@H](OC(=O)CC(C)(C)C(=O)O)C(C)(C)C5CC[C@@]4(C)[C@]3(C)CC[C@@]2(NC(=O)OC[C@@H]2CCCN2C)CC1=O (stereo partly drawn) [20-20, 3β-O-(3′,3′-Dimethylsuccinyl)-17β-((S)1-methylpyrrolidine-2-methoxycarbonylamino)-21-oxolup-18-ene] | > 6.70 |
| COC(=O)N[C@@]12CC[C@]3(C)[C@H](CC[C@@H]4[C@@]5(C)CC[C@H](OC(=O)CC(C)(C)C(=O)O)C(C)(C)[C@@H]5CC[C@]43C)C1=C(C(C)C)C(=O)C2 [20-1, 3β-O-(3′,3′-Dimethylsuccinyl)-17β-nnethoxycarbonylamino-21-oxolup-18-ene] | > 6.70 |
| Cc1cc(C(=O)N[C@@]23CC[C@]4(C)[C@H](CC[C@@H]5[C@@]6(C)CC[C@H](OC(=O)CC(C)(C)C(=O)O)C(C)(C)[C@@H]6CC[C@]54C)C2=C(C(C)C)C(=O)C3)cc(C)n1 [19-64, 3β-O-(3′,3′-Dimethylsuccinyl)-17β-(2,6-dimethylpyridin-4-yl)amido-21-oxolup-18-ene] | > 6.70 |
| CC(C)C1=C2C3CCC4[C@@]5(C)CC[C@H](OC(=O)CC(C)(C)C(=O)O)C(C)(C)C5CC[C@@]4(C)[C@]3(C)CC[C@@]2(NC(=O)c2ncccn2)CC1=O (stereo partly drawn) [19-22, 3β-O-(3′,3′-Dimethylsuccinyl)-17β-(pyrimidine-2-amido)-21-oxolup-18-ene] | > 6.70 |
| Cc1nnc(NC(=O)N[C@@]23CC[C@]4(C)C(CCC5[C@@]6(C)CC[C@H](OC(=O)CC(C)(C)C(=O)O)C(C)(C)C6CC[C@]54C)C2=C(C(C)C)C(=O)C3)s1 (stereo partly drawn) [17-45, 3β-O-(3′,3′-Dimethylsuccinyl)-17β-(N′-5-methyl-[1,3,4]thiadiazol-2-yl-ureido)-21-oxolup-18-ene] | > 6.70 |
| CC(C)C1=C2C3CCC4[C@@]5(C)CC[C@H](OC(=O)CC(C)(C)C(=O)O)C(C)(C)C5CC[C@@]4(C)[C@]3(C)CC[C@@]2(NC(=O)N2CC[C@@H](N)C2)CC1=O (stereo partly drawn) [17-42, 3β-O-(3′,3′-Dimethylsuccinyl)-17β-[((R)-3-amino-pyrrolidine-1-carbonyl)-amino]-21-oxolup-18-ene] | 6.00 to 6.70 |
| CC(C)C1=C2[C@H]3CC[C@@H]4[C@@]5(C)CC[C@H](OC(=O)CC(C)(C)C(=O)O)C(C)(C)[C@@H]5CC[C@@]4(C)[C@]3(C)CC[C@@]2(NC(=O)CCN2CCCC2)CC1=O [19-37, 3β-O-(3′,3′-Dimethylsuccinyl)-17β-(3-pyrrolidin-1-yl-propionamido)-21-oxolup-18-ene] | > 6.70 |
| CC(C)C1=C2[C@H]3CC[C@@H]4[C@@]5(C)CC[C@H](OC(=O)CC(C)(C)C(=O)O)C(C)(C)[C@@H]5CC[C@@]4(C)[C@]3(C)CC[C@@]2(NC(=O)c2ccccn2)CC1=O [19-15, 3β-O-(3′,3′-Dimethylsuccinyl)-17β-(Pyridin-2-yl)amido-21-oxolup-18-ene hydrochloride] | > 6.70 |
| CC(C)C1=C2[C@H]3CC[C@@H]4[C@@]5(C)CC[C@H](OC(=O)CC(C)(C)C(=O)O)C(C)(C)[C@@H]5CC[C@@]4(C)[C@]3(C)CC[C@@]2(NC(=O)c2cccc(F)c2)CC1=O [19-12, 3β-O-(3′,3′-Dimethylsuccinyl)-17β-(3-fluorobenzamido)-21-oxolup-18-ene] | > 6.70 |
| CC(C)C1=C2C3CCC4[C@@]5(C)CC[C@H](OC(=O)CC(C)(C)C(=O)O)C(C)(C)C5CC[C@@]4(C)[C@]3(C)CC[C@@]2(NC(=O)NC2CCNCC2)CC1=O (stereo partly drawn) [17-10, 3β-O-(3′,3′-Dimethylsuccinyl)-17β-(N′-piperidin-4-yl-ureido)-21-oxolup-18-ene] | < 6.00 |
| CC(C)C1=C2[C@H]3CC[C@@H]4[C@@]5(C)CC[C@H](OC(=O)CC(C)(C)C(=O)O)C(C)(C)C5CC[C@@]4(C)[C@]3(C)CC[C@@]2(NC(=O)NC[C@@H]2CCCN2)CC1=O (stereo partly drawn) [17-38, 3β-O-(3′,3′-Dimethylsuccinyl)-17β-(3-(S)-1-pyrrolidin-2-ylmethyl-ureido)-21-oxolup-18-ene] | > 6.70 |
| CC(C)C1=C2C3CCC4[C@@]5(C)CC[C@H](OC(=O)CC(C)(C)C(=O)O)C(C)(C)C5CC[C@@]4(C)[C@]3(C)CC[C@@]2(NC(=O)NC2CCCCC2)CC1=O (stereo partly drawn) [17-7, 3β-O-(3′,3′-Dimethylsuccinyl)-17β-[N′-(cyclohexyl)ureido]-21-oxolup-18-ene] | > 6.70 |
| CC(C)C1=C2C3CCC4[C@@]5(C)CC[C@H](OC(=O)CC(C)(C)C(=O)O)C(C)(C)C5CC[C@@]4(C)[C@]3(C)CC[C@@]2(NC(=O)OCCN2CCCC2=O)CC1=O (stereo partly drawn) [20-24, 3β-O-(3′,3′-Dimethylsuccinyl)-17β-(2-(2-oxo-pyrrolidin)-1-ethoxycarbonylamino)-21-oxolup-18-ene] | > 6.70 |
| CC(C)C1=C2C3CCC4[C@@]5(C)CC[C@H](OC(=O)CC(C)(C)C(=O)O)C(C)(C)C5CC[C@@]4(C)[C@]3(C)CC[C@@]2(NC(=O)OC2CCCC2)CC1=O (stereo partly drawn) [20-4, 3β-O-(3′,3′-Dimethylsuccinyl)-17β-cyclopentyloxycarbonylamino-21-oxolup-18-ene] | > 6.70 |
| CC(C)C1=C2[C@H]3CC[C@@H]4[C@@]5(C)CC[C@H](OC(=O)CC(C)(C)C(=O)O)C(C)(C)[C@@H]5CC[C@@]4(C)[C@]3(C)CC[C@@]2(NC(=O)c2cncn2C)CC1=O [19-18, 3β-O-(3′,3′-Dimethylsuccinyl)-17β-(1-methyl-1H-imidazole-5-amido)-21-oxolup-18-ene] | > 6.70 |
| CC(C)C1=C2[C@H]3CC[C@@H]4[C@@]5(C)CC[C@H](OC(=O)CC(C)(C)C(=O)O)C(C)(C)[C@@H]5CC[C@@]4(C)[C@]3(C)CC[C@@]2(NC(=O)NC2CNC2)CC1=O [17-35] | 6.00 to 6.70 |
| CC(C)C1=C2C3CCC4[C@@]5(C)CC[C@H](OC(=O)CC(C)(C)C(=O)O)C(C)(C)C5CC[C@@]4(C)[C@]3(C)CC[C@@]2(NC(=O)[C@H]2CCCN2C(=O)OC(C)(C)C)CC1=O (stereo partly shown) [19-58] | > 6.70 |
| Cc1nnc(C(=O)N[C@@]23CC[C@]4(C)C(CCC5[C@@]6(C)CC[C@H](OC(=O)[C@H]7CCC[C@@H](C(=O)O)C7)C(C)(C)C6CC[C@]54C)C2=C(C(C)C)C(=O)C3)o1 (stereo partly drawn) [19-81, 3β-O-(cis-Cyclohexane-3′-carboxylic acid-1′-carboxyl)-17β-[(5-methyl-[1,3,4]oxadiazol-2-carbonyl)-amino]-21-oxolup-18-ene] | 6.00 to 6.70 |
| Cc1nc(C(=O)N[C@@]23CC[C@]4(C)C(CCC5[C@@]6(C)CC[C@H](OC(=O)CC(C)(C)C(=O)O)C(C)(C)C6CC[C@]54C)C2=C(C(C)C)C(=O)C3)co1 (stereo partly drawn) [19-76, 3β-O-(3′,3′-Dimethylsuccinyl)-17β-(2-methyl-1,3-oxazole-4-amido)-21-oxolup-18-ene] | > 6.70 |
| CC(C)C1=C2C3CCC4[C@@]5(C)CC[C@H](OC(=O)CC(C)(C)C(=O)O)C(C)(C)C5CC[C@@]4(C)[C@]3(C)CC[C@@]2(NC(=O)NCc2ccsc2)CC1=O (stereo partly drawn) [17-75, 3β-O-(3′,3′-Dimethylsuccinyl)-17β-[N′-(thiophen-3-ylmethyl)-ureido]-21-oxolup-18-ene] | > 6.70 |

Same assay, conditions: Human immunodeficiency virus 1, MT2 cells, without human serum, average IC50 if tested more than once, read-out: MT2 (HIVIIIB) IC50 range

| Compound | pIC50 |
| --- | --- |
| COC(=O)N[C@@]12CC[C@]3(C)[C@H](CC[C@@H]4[C@@]5(C)CC[C@H](OC(=O)CC(C)(C)C(=O)O)C(C)(C)[C@@H]5CC[C@]43C)C1=C(C(C)C)C(=O)C2 [20-1, 3β-O-(3′,3′-Dimethylsuccinyl)-17β-nnethoxycarbonylamino-21-oxolup-18-ene] | > 6.70 |
